Data as given in the NIST ThermoML archive (doi:10.1021/je200806n).

Tests used:
[1] = 101.3 kPa, Liquid
[2] = xn = mol fraction of the nth substance listed; conditions: 101.3 kPa, Liquid

CCC(C)O (stereo not drawn) [butan-2-ol]
[1]
Conditions	mass density [kg/m3]	viscosity [mPa·s]
298.15 K	803.01	3.104
303.15 K	798.29	2.597
308.15 K	793.57	2.152
313.15 K	789.15	1.733

O=C1CCCCC1 [cyclohexanone]
[1]
Conditions	mass density [kg/m3]	viscosity [mPa·s]
298.15 K	941.91	2.057
303.15 K	937.24	1.847
308.15 K	932.67	1.694
313.15 K	927.72	1.546

CCCC(C)O (stereo not drawn) [pentan-2-ol]
[1]
Conditions	mass density [kg/m3]	viscosity [mPa·s]
298.15 K	805.41	3.499
303.15 K	801.21	2.801
308.15 K	796.64	2.334
313.15 K	792.51	1.993

CC(C)O [propan-2-ol]
[1]
Conditions	mass density [kg/m3]	viscosity [mPa·s]
298.15 K	781.09	2.055
303.15 K	776.57	1.788
308.15 K	771.87	1.563
313.15 K	767.36	1.378

CCCCC(C)O (stereo not drawn) [2-hexanol]
[1]
Conditions	mass density [kg/m3]	viscosity [mPa·s]
298.15 K	810.14	4.101
303.15 K	806.13	3.411
308.15 K	802.06	2.819
313.15 K	797.96	2.219

CCCCC(C)O (stereo not drawn) [2-hexanol] + O=C1CCCCC1
[2]
Conditions	mass density, 298.15 K [kg/m3]	mass density, 303.15 K [kg/m3]	mass density, 308.15 K [kg/m3]	mass density, 313.15 K [kg/m3]	viscosity, 298.15 K [mPa·s]	viscosity, 303.15 K [mPa·s]	viscosity, 308.15 K [mPa·s]	viscosity, 313.15 K [mPa·s]
x2 = 0	810.14	806.13	802.06	797.96	4.101	3.411	2.819	2.219
x2 = 0.0821	818.43	814.12	809.89	805.91	3.432	2.834	2.278	1.686
x2 = 0.1612	826.61	822.29	818.07	814.07	2.879	2.346	1.823	1.307
x2 = 0.2409	835.25	830.81	826.44	822.41	2.406	1.932	1.453	1.024
x2 = 0.3496	847.88	843.37	838.88	834.71	1.896	1.477	1.122	0.781
x2 = 0.4391	858.93	854.32	849.76	845.48	1.591	1.23	0.949	0.679
x2 = 0.56	874.62	869.92	865.28	860.83	1.359	1.08	0.873	0.655
x2 = 0.649	886.88	882.07	877.39	872.97	1.325	1.082	0.907	0.727
x2 = 0.7391	899.87	895.12	890.41	885.97	1.388	1.173	1.026	0.85
x2 = 0.8492	916.79	912.01	907.19	902.71	1.576	1.4	1.249	1.068
x2 = 0.9395	931.44	926.63	921.93	917.21	1.842	1.662	1.505	1.326
